Measured values taken from patent US6518278B1, “Carcinostatic substance for compatible administration, process of administrating same and process of rapidly inspecting same” (Debio Pharm S.A., priority 1994, dated 2003).
“Also recorded” adds a separate entry of the source.

What was measured:
[1] = tested on: human leutecyte strain cells (RPMI-8402); test: Rapid inspection of carcinostatic substances by counting divided cells with DAPI; type: cell-based; conditions: for number of the divided cells compared with the control (FIG. 15): 0.05 μg/ml VCR, 0.05 μg/ml VDS, 20 μg/ml MST-16, with 1 μg/ml DAPI; for division phases of the divided cells (microscope observation): ratio of the divided cells increased after the initiation of the cultivation, no anaphase or telophase cells observed
Method: After over a certain number of cancer cells are prepared by cultivation, a carcinostatic substance is added to the cancer cells. The number of the cells under the cell division at the respective measuring times is counted while continuing the cultivation. […] Accordingly, the effectiveness of the carcinostatic substance can be inspected by counting the number of the cells under the cell division among a certain number (for example, one thousand) of cells several times, comparing the said number with that of the former counting or the previous counting thereof and grasping the progress of the cell division by means of the increase or the decrease of the above comparison. If the DAPI is added with the carcinostatic substance during this procedure, the accurate counting of the number of the divided cells can be performed because the cells under the any phase of the cell division can be recognized. When the number of the divided cells decreases as a result of the comparison between the measurement values, it is judged that the multiplication of the cancer cells is depressed, or the function of the carcinostatic substance is performed. When, on the other hand, the number of the divided cells increases compared with the control, a certain function of the carcinostatic substance is judged to be performed. […] To the respective cultivation liquids were added, together with 1 μg/ml of the DAPI, (1) the control (no addition of the carcinostatic substance), (2) 5 μg/ml of CPT (camptotecin), (3) 10 μg/ml of CPT-11 ([…]), (4) 0.06 μg/ml of ADR (adriamycin), (5) 0.05 μg/ml of DNR (daunomycin), (6) 1 μ/ml of etoposide, (7) 20 μg/ml of MST-16 (sopsoxane), (8) 1 μg/ml of […]), (9) μg/ml of Act-D (actinomycin D), (10) 0.1 μg/ml of mitoxantrone. (11) 20 μg/ml of 5-FU, (12) 10 μg/ml of Ara-C (cytosinarabinoside) (13) 50 μg/ml of hydroxyurea, (14) 2 μg/ml of Aphidicolin, (15) 10 μg/ml of MTX (mesotroxate), (16) 0.05 μg/ml of VCR (vincristin), (17) 0.05 μg/ml of […]). (5) μg/ml of cisplatin, (18) 10 μg/ml of bleomycin, (20)10 μg/ml of MMC (mitomycin C) and (21) 5 μg/ml of cyclophospamide (endoxane). The samples were sampled from the respective cultivation liquids after one hour, […], 24 hours and then every 24 hour from the initiation of the cultivation. The samples were evaluated in accordance with the procedures of the preceding Examples. The results are shown in a graph of FIG. 15.

[2] = tested on: human leutecyte strain cell (RPMI-8402); test: Extinction effect of compatible administration of l-OHP and a compatible agent on tumor cells (compatible efficiency OE); type: cell-based; conditions: for Compatible Effects of l-OHP and Compatible Agent, Simultaneous Administration: both added day 1
Outline: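 RPMI-8402 cells (10^6/ml, 15% fetal bovine serum) got l-OHP (5 or 1 μg/ml) with a partner agent at high or low dose (e.g. cisplatin 1 or 0.5, 5-FU 10 or 5 μg/ml; irinotecan fixed at 10 μg/ml) on the same day or staggered days 1–4 in either order. Cell kill was corrected for the untreated control. A combination index of 85–115% was scored additive, >115% synergistic.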

[3] = larger dosage of compatible agent (μg/ml: cisplatin 1, 5-FU 10, irinotecane 10, adriamycin 0.05, vincristin 0.05, vindecin 0.05, etoposide 1, bleomycin 10, mitoxantrone 0.1, mitomycine 1), l-OHP 1 μg/ml (5 μg/ml with irinotecane) added day 1
[4] = larger dosage of compatible agent (μg/ml: cisplatin 1, 5-FU 10, irinotecane 10, adriamycin 0.05, vincristin 0.05, vindecin 0.05, etoposide 1, bleomycin 10, mitoxantrone 0.1, mitomycine 1), l-OHP 1 μg/ml (5 μg/ml with irinotecane)
[5] = larger dosage of compatible agent added day 1 (μg/ml: cisplatin 1, 5-FU 10, irinotecane 10, adriamycin 0.05, vincristin 0.05, vindecin 0.05, etoposide 1, bleomycin 10, mitoxantrone 0.1, mitomycine 1), l-OHP 1 μg/ml (5 μg/ml with irinotecane)
[6] = smaller dosage of compatible agent (μg/ml: cisplatin 0.5, 5-FU 5, irinotecane 10, adriamycin 0.01, vincristin 0.01, vindecin 0.01, etoposide 0.5, bleomycin 1, mitoxantrone 0.05, mitomycine 0.5), l-OHP 1 μg/ml added day 1
[7] = smaller dosage of compatible agent (μg/ml: cisplatin 0.5, 5-FU 5, irinotecane 10, adriamycin 0.01, vincristin 0.01, vindecin 0.01, etoposide 0.5, bleomycin 1, mitoxantrone 0.05, mitomycine 0.5), l-OHP 1 μg/ml
[8] = smaller dosage of compatible agent added day 1 (μg/ml: cisplatin 0.5, 5-FU 5, irinotecane 10, adriamycin 0.01, vincristin 0.01, vindecin 0.01, etoposide 0.5, bleomycin 1, mitoxantrone 0.05, mitomycine 0.5), l-OHP 1 μg/ml

Compound	number of the divided cells compared with the control (FIG. 15) [1]	division phases of the divided cells (microscope observation) [1]	compatible administration effect with l-OHP, summary in words [2]	Compatible Effects of l-OHP and Compatible Agent, Time Lag Administration, Addition Administration of Compatible Agent day 2 [2, 3]	Compatible Effects of l-OHP and Compatible Agent, Time Lag Administration, Addition Administration of Compatible Agent day 3 [2, 3]	Compatible Effects of l-OHP and Compatible Agent, Time Lag Administration, Addition Administration of Compatible Agent day 4 [2, 3]	Compatible Effects of l-OHP and Compatible Agent, Simultaneous Administration [2, 4]	Compatible Effects of l-OHP and Compatible Agent, Time Lag Administration, Addition Administration of l-OHP day 2 [2, 5]	Compatible Effects of l-OHP and Compatible Agent, Time Lag Administration, Addition Administration of l-OHP day 3 [2, 5]	Compatible Effects of l-OHP and Compatible Agent, Time Lag Administration, Addition Administration of l-OHP day 4 [2, 5]	Compatible Effects of l-OHP and Compatible Agent, Time Lag Administration, Addition Administration of Compatible Agent day 2 [2, 6]	Compatible Effects of l-OHP and Compatible Agent, Time Lag Administration, Addition Administration of Compatible Agent day 3 [2, 6]	Compatible Effects of l-OHP and Compatible Agent, Time Lag Administration, Addition Administration of Compatible Agent day 4 [2, 6]	Compatible Effects of l-OHP and Compatible Agent, Simultaneous Administration [2, 7]	Compatible Effects of l-OHP and Compatible Agent, Time Lag Administration, Addition Administration of l-OHP day 2 [2, 8]	Compatible Effects of l-OHP and Compatible Agent, Time Lag Administration, Addition Administration of l-OHP day 3 [2, 8]	Compatible Effects of l-OHP and Compatible Agent, Time Lag Administration, Addition Administration of l-OHP day 4 [2, 8]
CC[C@]1(O)C[C@@H]2CN(CCc3c([nH]c4ccccc34)[C@@](C(=O)OC)(c3cc4c(cc3OC)N(C)[C@H]3[C@@](O)(C(N)=O)[C@H](O)[C@]5(CC)C=CCN6CC[C@]43[C@@H]65)C2)C1 [vindecin]	remarkable increases of the numbers of the divided cells	the division prophase and the division metaphase	the additive effect at best; also recorded: no synergistic effects can be obtained in all the 14 combinations and the additive effects can be obtained in only three combinations	Δ (Δ: Below Additive Effect)	Δ (Δ: Below Additive Effect)	Δ (Δ: Below Additive Effect)	◯ (◯: Additive Effect)	◯ (◯: Additive Effect)	Δ (Δ: Below Additive Effect)	Δ (Δ: Below Additive Effect)	Δ (Δ: Below Additive Effect)	Δ (Δ: Below Additive Effect)	◯ (◯: Additive Effect)	Δ (Δ: Below Additive Effect)	Δ (Δ: Below Additive Effect)	Δ (Δ: Below Additive Effect)	Δ (Δ: Below Additive Effect)
CC[C@]1(O)C[C@H]2CN(CCc3c([nH]c4ccccc34)[C@@](C(=O)OC)(c3cc4c(cc3OC)N(C=O)[C@H]3[C@@](O)(C(=O)OC)[C@H](OC(C)=O)[C@]5(CC)C=CCN6CC[C@]43[C@@H]65)C2)C1 [vincristin]	remarkable increases of the numbers of the divided cells	the division prophase and the division metaphase	the additive effect at best; also recorded: no synergistic effects can be obtained in all the combinations and the additive effects can be obtained in most combinations	Δ (Δ: Below Additive Effect)	Δ (Δ: Below Additive Effect)	◯ (◯: Additive Effect)	Δ (Δ: Below Additive Effect)	◯ (◯: Additive Effect)	Δ (Δ: Below Additive Effect)	◯ (◯: Additive Effect)	◯ (◯: Additive Effect)	Δ (Δ: Below Additive Effect)	◯ (◯: Additive Effect)	Δ (Δ: Below Additive Effect)	◯ (◯: Additive Effect)	◯ (◯: Additive Effect)	◯ (◯: Additive Effect)
